The values that follow come from patent US20070135470A1, “Utilization of vinpocetine to avoid complications in particular those associated to hearing which occur with epilepsy, and treatment thereof” (UNIVERSIDAD NACIONAL AUTONOMA DE MEXICO, priority 2003, published 2007).

The subject of data set [1] is hearing loss induced by PTZ in guinea pigs. As to the kind of experiment: ABR (auditory) threshold in PTZ-induced epilepsy. Format: in vivo, guinea pig. The protocol: Experiments were performed in pigmented adult male guinea pigs initially weighing 349±38 g. ABRs recordings were used to evaluate the hearing status of each animal and EEG recordings to evaluate changes in cortical excitability. The ABR and EEG recordings were obtained following a method that we have previously reported (Nekrassov and Sitges, 2003). The Institutional Animal Use and Care Committee approved all experimental procedures.
Three types of recordings were performed in the anaesthetized animals, namely the ABR recordings elicited by a stimulus of high intensity (100 dB), the ABR recordings for determination of the auditory threshold and the EEG recordings.
Determination of ABR thresholds. ABR recordings elicited by stimuli of progressively lower intensity (in dB) were used for determining the hearing threshold. Threshold is defined as the lowest stimulus intensity (in dB) at which the P3 wave of the ABR could still be recorded in three consecutive trials.
Student's t-test was used for the evaluation of the differences between results obtained before and at the specified times after the injection of the convulsing agents. The criterion for statistical significance for all measures was P≦0.05. All data are expressed as means±standard error of the mean. In figures and tables the symbol * is used for indicating statistic significant differences.
Eight male guinea pigs were entered into this study. PTZ was dissolved in saline and vinpocetine in a saline acidified (with HCl) adjusted to pH 4 (with NaOH). Four hours after injecting guinea pigs with vehicle (acidified saline used to dissolve vinpocetine) the animals were anaesthetized and a first set of ABR and EEG recordings was taken before the injection (i.p) of the convulsing agent, PTZ. The animals were injected with PTZ (100 mg/kg) and about 2 min after injecting PTZ (ictal period) the EEG recording was taken. Then the other series of ABR and EEG recordings were taken at specific times within the post-ictal period. After two weeks the same series of recordings was taken but instead vehicle the animals were injected with vinpocetine (2 mg/kg) 4 hours before the injection of PTZ.

Another data set has as its system humans. The conditions noted are these: doses as high as 60 mg/day; Hindmarch et al. 1991; cited from earlier work.

As for `CCOC(=O)C1=C[C@]2(CC)CCCN3CCc4c(n1c1ccccc41)[C@@H]32` [Vinpocetine, ethyl apovincamine-22-oate], the auditory threshold in data set [1] (4 kHz, 30 min after PTZ 100 mg/kg i.p., vinpocetine 2 mg/kg or vehicle 4 h before PTZ) was 18 ± 1.2 dB; in data set [1] (4 kHz, 50 min after PTZ 100 mg/kg i.p., vinpocetine 2 mg/kg or vehicle 4 h before PTZ), 18 ± 1.2 dB; in data set [1] (4 kHz, before PTZ injection, 4 h after vinpocetine 2 mg/kg, mean±SEM, 8 animals), 20 ± 1.6 dB; in data set [1] (8 kHz, 30 min after PTZ 100 mg/kg i.p., vinpocetine 2 mg/kg or vehicle 4 h before PTZ), 6.0 ± 1.0 dB; in data set [1] (8 kHz, 50 min after PTZ 100 mg/kg i.p., vinpocetine 2 mg/kg or vehicle 4 h before PTZ), 6.0 ± 1.0 dB; in data set [1] (8 kHz, before PTZ injection, 4 h after vinpocetine 2 mg/kg, mean±SEM, 8 animals), 6.0 ± 1.0 dB. Besides, the tolerability in humans result in the data set with humans was “well tolerated and without contraindications”.
